Experimental data: patent publication US20100190722A1, “SUBSTANCE P AND THYROTROPIN RELEASING HORMONE FOR THERAPEUTIC APPLICATIONS” (priority 2007, published 2010)
No end group written: not given here.

Assays:
[1] = system: hepatitis B virus (HBV) ayw strain; experiment: HBV experimental assay system (secreted HBV DNA, TaqMan PCR); type: cell-based; details: 10 micrograms per ml; HepG2-2.2.15 cells; six days
[2] = system: A549 cells; experiment: Apoptosis prevention assay (C2 ceramide, Annexin-5); type: cell-based, human; details: 10 micrograms per ml, 30 min pretreatment
Description: Human A549 cells (carcinomic human alveolar basal epithelial cells) were utilized in the experiments employing the Annexin-5 apoptosis assay. […] A549 cells were pretreated for 30 min with test peptides—10 micrograms per ml—followed by the exposure to C2 ceramide.

[3] = system: TNF-a spleen cells; experiment: Th1/Th2 cytokine profiling assay, TNF-a; type: cell-based, Balb/c mice; details: 10 micrograms per ml; Ovalbumin restimulation; 72 hours
Excerpt: (§1) The Balb/c mice (originated in 1923, it is a popular strain and is used in many different research disciplines. Also classified as an inbred from the production of 20 or more successive brother-sister matings, the Balb/c mouse is albino and small in size) were immunized on Days 1, 15, and 29 with Ovalbumin (Ovalbumin is the main protein found in egg white, commonly used to stimulate an immunological reaction in test animals) in PBS (5 micrograms/injection). On day 50, spleens of the mice were harvested (3 weeks after last boost with Ovalbumin). […] Thereafter, additional Ovalbumin was added to the cells at 10 micrograms/ml for in vitro restimulation of the cells. 72 hours later, cell supernatants were harvested and assayed using the Becton Dickinson Mouse Th1/Th2 Cytokine CBA Kit.

[4] = system: IFNγ spleen cells; experiment: Th1/Th2 cytokine profiling assay, IFNγ; type: cell-based, Balb/c mice; details: 10 micrograms per ml; Ovalbumin restimulation; 72 hours
Excerpt: as §1

[5] = system: IL-2 spleen cells; experiment: Th1/Th2 cytokine profiling assay, IL-2; type: cell-based, Balb/c mice; details: 10 micrograms per ml; Ovalbumin restimulation; 72 hours
Excerpt: as §1

[6] = system: IL-4 spleen cells; experiment: Th1/Th2 cytokine profiling assay, IL-4; type: cell-based, Balb/c mice; details: 10 micrograms per ml; Ovalbumin restimulation; 72 hours
Excerpt: as §1

[7] = system: IL-5 spleen cells; experiment: Th1/Th2 cytokine profiling assay, IL-5; type: cell-based, Balb/c mice; details: 10 micrograms per ml; Ovalbumin restimulation; 72 hours
Excerpt: as §1

[8] = system: RAW 264.7 cells; experiment: Phagocytosis assay (Fluorescein-labeled Escherichia coli, flow cytometry); details: 10 micrograms per ml
[9] = system: HIV-1IIIB; experiment: HIV-1 antiviral assay in CEM-SS cells (MTS readout); type: cell-based
[10] = system: HCMV strain AD169; experiment: HCMV plaque formation assay in MRC-5 cells

Row | Compound | inhibition of HBV replication as compared to the virus control infection [1] | prevention (reduction) of ceramide-induced apoptosis on human lung cells [2] [%] | TNF-a spleen cells; TH1 response (% of control) [3] | IFNγ spleen cells; TH1 response (% of control) [4] | IL-2 spleen cells (% of control) [5] | IL-4 spleen cells; TH2 response (% of control) [6] | IL-5 spleen cells; TH2 response (% of control) [7] | increase of the phagocytic activity of murine macrophages [8] [%] | antiviral activity of positive control compounds (HIV-1) [9] | antiviral activity of positive control compound (HCMV) [10]
1 | Pyr-His-Pro-NH2 [Peptide 2] | no effect | 17.2 | 110.7 % of control | 102.0 % of control | 0.0 % of control | 106.2 % of control | 67.5 % of control | 31.4 | – | –
2 | CC(C)(C)NC(=O)[C@@H]1CN(Cc2cccnc2)CCN1C[C@@H](O)C[C@@H](Cc1ccccc1)C(=O)N[C@H]1c2ccccc2C[C@H]1O [indinavir] | – | – | – | – | – | – | – | – | expected levels of antiviral activity | –
3 | Nc1nc(O)c2ncn(COC(CO)CO)c2n1 [Ganciclovir] | – | – | – | – | – | – | – | – | – | expected levels of antiviral activity
4 | Cc1cn([C@H]2C[C@H](N=[N+]=[N-])[C@@H](CO)O2)c(=O)[nH]c1=O [AZT] | – | – | – | – | – | – | – | – | expected levels of antiviral activity | –
5 | Arg-Pro-Lys-Pro-Gln-Gln-Phe-Phe-Gly-Leu-Met-NH2 (RPKPQQFFGLM-NH2) [Peptide 1] | 30.2% | 10.9 | 101.0 % of control | 136.4 % of control | 113.6 % of control | 106.2 % of control | 64.0 % of control | 28.6 | – | –
